Results as given in patent publication US5869023A, “Composition for MRI comprising both a positive and a negative contrast agent” (Nycomed Imaging AS, priority 1993, dated 1999).
Entries after “also recorded” stand apart in the source; their conditions may differ.

Key:
[1] = tested on: infarcted and non-ischemic myocardium; settings: pig, in vivo; for time of early peak in dialysate: iv
Method: (§1) Myocardial infarction was induced in 5 anaesthetized pigs of either sex (weight 25-30 kg) by ligating a diagonal branch of the left anterior descending artery (LAD), at thoracotomy. Microdialysate probes were inserted in ischemic and non-ischemic myocardium. The pigs were sacrificed 2 hours after administration of contrast media. 4 hour post occlusion Gd-DTPA-BMA (0.3 mmol/kg) and Dy-DTPA-BMA (1.0 mmol/kg) were simultaneously administered in vivo with an injection time of one minute. The total occlusion time was thus 6 hours.
(§2) The microdialysate was collected every 10 minutes and measured for gadolinium and dysprosium using inductively coupled plasma atomic emission spectrometry (ICP-AES). The microdialysis equipment consisted of a CMA®/20 microdialysis probe with a 10 mm flexible membrane and a diameter of 0.5 mm (CMA AB, Stockholm, Sweden). […] The probe was perfused with a Krebs-Ringer phosphate buffer (pH 7.4) at a speed of 2 μl/min and a dead space, in the system, of 10 μl. […] One probe was inserted into the central part of the ischemic area and another probe was placed in non-ischemic myocardium in the lateral wall using the Seldinger technique to minimize mechanical injury to myocardium and probe membrane. A CMA® microdialysis pump (CMA 100) was used with two syringes to perfuse the probes.
(§3) In addition, gadolinium and dysprosium were determined in dialysates from five pigs by ICP-AES. Twenty μl portions were sampled in plastic tubes and kept frozen until analysis. The samples were diluted to 5.02 ml with ultra-pure water. To enhance the sensitivity of measurements, an ultrasonic nebulizer was used instead of the pneumatic one. The limit of detection for the method is about 2 μg/l for both gadolinium and dysprosium in the measuring solution. This means that about 3 μmol/l can be detected in the dialysates.

[2] = tested on: normal and infarcted myocardium; settings: rat, in vivo; for concentration ratio, reperfused infarcted vs normal myocardium: 15 min
Method: Thirty seven Sprague Dawley rats (200-400 gm) were anaesthetized by an intraperitoneal injection of sodium pentobarbital (50 mg/kg body weight). After tracheostomy, animals were ventilated using a small animal respirator. The heart was exposed following a left thoracotomy through the 4th intercostal space and a surgical suture was used to ligate the anterior branch of the left coronary artery near its origin beneath the left atrial appendage using a snare ligature. The presence of occlusion was visually confirmed by noting the development of myocardial cyanosis. After 1 hour occlusion, reperfusion was initiated by loosening the snare ligature. A catheter was placed into a femoral vein to inject contrast media. All animals which received contrast agent were administered doses at 45 minutes of reflow. After 1 hour reperfusion, each heart was excised and rinsed in 0.9% saline, patted dry with gauze, and a cotton swab was inserted into the left ventricular cavity to expand the chamber. Each heart was wrapped in clear plastic wrap to minimise dehydration during imaging.
To group 1 rats (n=9) were administered 0.2 mmol/kg of GdDTPA-BMA immediately followed by 1.0 mmol/kg of DyDTPA-BMA. Group 2 (n=7) received no contrast agents. Two spin-echo images were obtained from the midventricle of each heart, a T1-weighted image with TR/TE=300/20 and NEX=4, and T2-weighted image with TR/TE=3000/60 and NEX=2. After imaging, each heart was sliced at the midventricular level and soaked in a 2% solution of TTC at 37° C. for 15 minutes to define myocardial infarction.
Samples of normal and infarcted myocardium were retained for analysis of Gd and Dy content by means of ICP-MS.

Human blood samples = test: In vitro MR imaging of contrast agent doped human blood samples, viable vs freeze-injured cells (Example 2); type: cell-based
Method: Human blood samples with different hematocrit readings (Ht) of 27%, 45% and 69% were prepared to provide sample models for different levels of compartmentalization between intracellular and extracellular fluids. To initiate cellular level injury, samples with these Ht readings were frozen to effect cell membrane destruction. Finally a control sample of cell free plasma was also used.
To the test samples were added (a) a positive ECF contrast agent (GdDTPA-BMA at a dosage corresponding to 0.2 mmol Gd/kg); (b) a negative ECF contrast agent (DyDTPA-BMA at a dosage corresponding to 0.6 mmol Dy/kg); and (c) a positive ECF contrast agent and a negative ECF contrast agent (GdDTPA-BMA and DyDTPA-BMA at dosages corresponding to 0.2 mmol Gd/kg and 0.6 mmol Dy/kg).
These doped samples, and controls to which no contrast agent was added, were imaged together at ambient temperature in the head coil of a Siemens Magnetom operating at 0.5 T using T1 -weighted (TR/TE 500/30 ms), T2 -weighted (TR/TE 1500/90 ms) and proton density-weighted (TR/TE 1500/30 ms) echo sequences. The signal intensity for each contrast agent doped sample was normalized to the corresponding undoped sample and the results are set forth as ratios in FIGS. 1 to 3 hereto, squares, circles and diamonds representing the ratios for T1 -weighted, PD-weighted and T2 -weighted sequences respectively.

[3] = tested on: normal and reperfused infarcted myocardium; test: MR imaging and T2/T2* relaxation of rat hearts after single agents, protocol 2 (Example 6); type: in vivo, Sprague Dawley rats; settings: for T2, infarct / T2, normal myocardium: four-echo T2-weighted, TR=4000 ms; for GRE signal intensity, infarct / GRE signal intensity, normal myocardium: gradient recalled echo images, Dy 1.0 mmol/kg n=11 or Gd 0.2 mmol/kg n=7; for T2*, infarct / T2*, normal myocardium: gradient-recalled images, TE=10, 15, 20 and 30 ms; for SE T1 signal intensity, infarct / SE T1 signal intensity, normal myocardium: spin echo T1 weighted, TR/TE=300/20 ms; for SE T2 signal intensity, infarct / SE T2 signal intensity, normal myocardium: spin echo T2 weighted, TR/TE=4000/80 ms
Excerpt: Images were acquired at room temprature using a GE CSI 2.0 T system. Each heart was positioned with its long axis parallel to the main magnetic field such that axial images would present short axis views of the heart. All images were obtained using a slice thickness of 2 mm, FOV of 30 mm, and a raw data matrix of 128×256 interpolated to 256×256 during reconstruction. TR/TE settings used for spin echo images are indicated below. Gradient echo images were obtained using a TR of 600 ms, with the radio frequency pulse power set very low such that no signal saturation was evident following multiple pulses and images would contain no T1 weighting.
Group 3 (n=11) received 1.0 mmol/kg DyDTPA-BMA, group 4 (n=7) received 0.2 mmol/kg of GdDTPA-BMA and group 5 (n=7) received no contrast agents. The imaging protocol for each heart consisted of spin echo T1-weighted (TR/TE=300/20 ms, NEX=4) and T2-weighted (TR/TE=4000/80 ms; NEX=2), a set of four-echo T2-weighted images (TR=4000 ms, TE=20, 40, 60 and 80 ms, NEX=2) for estimation of regional T2 values, and a set of gradient-recalled images (TE=10, 15, 20 and 30 ms, NEX=4) for estimation of region T2* values. TTC staining of the heart was performed to verify the presence of infarction.
Signal intensities were measured from ROIs selected over infarcted and uninfarcted myocardium. The same ROIs were applied to all images obained from each heart.
A series of gradient recalled and spin echo MR images were obtained to resolve the effects of GdDTPA-BMA on T2-weighted images and DyDTPA-BMA on T1-weighted images and also to more thoroughly characterize the differences in contrast media-induced T2 and T2* enhancement between infarcted and normal myocardium. Table III summarises the observed alterations in regional signal intensity and relaxation rates following administration of either GdDTPA-BMA or DyDTPA-BMA.

[4] = tested on: infarcted and non-ischemic myocardium; test: MR imaging of excised pig hearts, double contrast (Example 5); type: in vivo
Method: The total occlusion time was thus 6 hours.
Following sacrifice, the hearts were extirpated and rinsed in isotonic saline to remove remaining blood. The hearts were examined ex vivo at ambient temperature in the MR equipment and then cut into approximately 8 mm thick transverse slices and soaked for 10-20 minutes in a 1% aqueous solution of triphenyltetrazolium chloride (TTC) at 37° C. TTC stains non-ischemic myocardium brick red. The slices were inspected visually for unstained areas of infarction.
MR images were obtained in an identical manner to that described in Example 4.
In the transverse images, three ROI's were placed in infarcted myocardium. Four ROI's were placed in non-ischemic myocardium, two in the anterior wall and two in the posterior wall of the left ventricle. The mean signal intensity (S) was measured in each ROI. One ROI was placed anterior to the heart in an area free from visible artefacts, in order to measure the standard deviation (SD) of the background signal. These measurements were used to calculate the contrast (C) and contrast-to-noise (C/N) ratios between infarcted (inf) and non-ischemic (nonisch) myocardium using the formulae defined in Example 4.
In each heart, non-ischemic myocardium and infarction were represented by a mean value from measurements in two slices.

[5] = tested on: infarcted and non-ischemic myocardium; settings: pig, in vivo
Method: as §1
The total amount of gadolinium and dysprosium in samples of infarcted and non-ischemic myocardium was quantified by ICP-AES.
Paired t-tests (two-tailed) were used to compare the gadolinium and dysprosium content, respectively, in infarcted and non-ischemic myocardium within the group. […] In addition, the extracellular concentrations of gadolinium and dysprosium were further compared with the content of gadolinium and dysprosium in tissue samples.

[6] = tested on: infarcted and nonischemic myocardium; settings: cited from earlier work; for distribution / enhancement in 6-hour-old myocardial infarction: porcine model
myocardial infarction = settings: first positive, second negative agent, sequential; cited from earlier work
[7] = tested on: infarcted and non-ischemic myocardium; test: Microdialysis kinetics of Gd and Dy in extracellular space of pig myocardium (Example 5); settings: for concentration course in dialysate / duration of plateau in dialysate: infarcted myocardium; for concentration in dialysate after early peak: non-ischemic myocardium
Method: as §1, §2, §3

[8] = in vivo; cited from earlier work
[9] = tested on: infarcted and nonischemic myocardium; test: Ex vivo MR imaging of pig hearts, myocardial infarction model (Example 4); type: in vivo; settings: Dy DTPA-BMA 1.0 mmol/kg plus Gd DTPA-BMA 0.3 mmol/kg
Method: A control group received no contrast agent.
Following sacrifice, the hearts were extirpated and rinsed in isotonic saline to remove remaining blood. The hearts were examined ex vivo at ambient temperature in the MR equipment and then cut into thin transverse slices and soaked for about 20 minutes in a 1% aqueous solution of triphenyltetrazolium chloride (TTC) at 37° C. The slices were then visually inspected for unstained areas corresponding to infarction.
MR examination was performed in a superconductive whole body equipment (Siemens Magnetom) operating at 0.5 T. The hearts were investigated with saggital and transverse multi-slice spin-echo images with TR/TE of 500/30 (two excitations), 1500/30,70 and 1500/30,120 (single excitations) using a saddle-shaped coil with a diameter of 13 cm. The following parameters were used: Slice thickness 7 mm. Interslice gap 20%. Acquisition matrix 256×256 giving a resolution of 0.7×0.7 mm.
In the transverse images regions of interest (ROI's) were placed in infarcted and nonischemic myocardium, in a corn oil phantom and in front of the heart (noise). The mean signal intensity (SI) was measured in each ROI.
In addition, the SD was measured in the noise. […]

## CNC(=O)CN(CCN(CCN(CC(=O)[O-])CC(=O)NC)CC(=O)[O-])CC(=O)[O-].[Gd+3] [GdDTPA-BMA, reference compound]
[1]
  time to plateau concentration in dialysate: 20 to 30 min
  time of early peak in dialysate: ≤ 10 min
[2]
  metal content in infarcted region vs normal myocardium: commensurably greater content of gadolinium in that region than in normal myocardium
  concentration ratio, reperfused infarcted vs normal myocardium: approximately 2.5 fold
Human blood samples; T1-weighted TR/TE 500/30 ms, 0.5 T
  signal intensity ratio (doped/undoped), T1-weighted: increased signal intensity effect
Human blood samples; T2-weighted (1500/90) and proton density-weighted (1500/30)
  signal intensity ratio (doped/undoped), other sequences: barely noticed in the other sequences
Human blood samples; all sequences
  discrimination between "viable" and "non-viable" samples: no significant discrimination
[3]; T1-weighted images
  differential enhancement of reperfused infarction, T1-weighted: significant differential enhancement
  enhancement of infarcted region, single agent vs both agents: significantly less than that noted when both agents were present
[3]; T2-weighted images
  delineation of infarcted region, T2-weighted: delineated by both agents
  signal intensity of infarcted region, T2-weighted: significantly reduced compared to hearts with no contrast
  signal intensity of normal region, T2-weighted: not different from that of hearts with no contrast
[3]
  T2, infarct: 31.1 ± 1.2 ms
  T2, normal myocardium: 34.7 ± 0.7 ms
  GRE signal intensity, infarct: 185 ± 49
  GRE signal intensity, normal myocardium: 200 ± 40
  T2*, infarct: 13.2 ± 1.5 ms
  T2*, normal myocardium: 17.1 ± 2.2 ms
  SE T1 signal intensity, infarct: 350 ± 34
  SE T1 signal intensity, normal myocardium: 184 ± 21
  SE T2 signal intensity, infarct: 35 ± 7
  SE T2 signal intensity, normal myocardium: 42 ± 4
[4]; T1- and proton density-weighted, vs no contrast agent or Dy-DTPA-BMA only
  infarction signal / visualization: enhanced infarction signal in the T1- and proton density-weighted sequences, resulting in improved infarction visualization
[5]
  concentration in infarcted vs non-ischemic myocardium: more than threefold higher concentration
[6]
  distribution / enhancement in 6-hour-old myocardial infarction: infarct accumulation
Myocardial infarction
  distribution in infarcted heart: distributed to the infarcted area of the heart
[7]
  concentration course in dialysate: increased gradually
  duration of plateau in dialysate: 60 min
  concentration in dialysate after early peak: diminished with time

## CNC[C@H](O)[C@@H](O)[C@H](O)[C@H](O)CO.CNC[C@H](O)[C@@H](O)[C@H](O)[C@H](O)CO.O=C([O-])CN(CCN(CC(=O)[O-])CC(=O)O)CCN(CC(=O)[O-])CC(=O)O.[Gd+3] [Gd DTPA-dimeglumine]
[8]
  distribution after intravenous administration: rapidly distributes throughout the extracellular fluid (ECF)

## O=C([O-])CN(CCN(CC(=O)[O-])CC(=O)O)CCN(CC(=O)[O-])CC(=O)O.[Gd+3] [Gd-DTPA, reference compound]
[6]
  distribution / enhancement in 6-hour-old myocardial infarction: infarct accumulation

## CNC(=O)CN(CCN(CCN(CC(=O)[O-])CC(=O)NC)CC(=O)[O-])CC(=O)[O-].[Dy+3] [DyDTPA-BMA]
[1]
  time to plateau concentration in dialysate: 20 to 30 min
  time of early peak in dialysate: ≤ 10 min
[9]
  effect of negative agent on T1 enhancing effect of positive agent in infarcted area: does not cancel the T1 enhancing effect of the positive agent in the infarcted area
[2]
  metal content in infarcted region vs normal myocardium: greater amount of dysprosium in the infarcted zone
  concentration ratio, reperfused infarcted vs normal myocardium: approximately 2.5 fold
Human blood samples; all sequences, most markedly T2-weighted
  signal intensity, "viable" sample: signal intensity fell with increasing Ht reading
Human blood samples; frozen samples, all sequences
  signal intensity, "non-viable" samples: no effect
[3]; T1-weighted images
  differential enhancement of reperfused infarction, T1-weighted: significant differential enhancement
[3]; T2-weighted images
  contrast between infarcted and normal region vs both agents: greater contrast between the two regions than was noted when both agents were administered
  delineation of infarcted region, T2-weighted: delineated by both agents
  signal intensity of infarcted region, T2-weighted: much less reduction in signal of the infarcted region
  signal intensity of normal region, T2-weighted: great suppression of normal myocardium signal
[3]
  T2, infarct: 35.8 ± 1.0 ms
  T2, normal myocardium: 25.9 ± 0.6 ms
  GRE signal intensity, infarct: 191 ± 34
  GRE signal intensity, normal myocardium: 105 ± 18
  T2*, infarct: 17.7 ± 1.2 ms
  T2*, normal myocardium: 9.4 ± 0.5 ms
  SE T1 signal intensity, infarct: 141 ± 14
  SE T1 signal intensity, normal myocardium: 88 ± 7
  SE T2 signal intensity, infarct: 42 ± 4
  SE T2 signal intensity, normal myocardium: 12 ± 1
[4]; all investigated sequences, infarcted tissue
  counteraction of Gd-DTPA-BMA induced signal enhancement by Dy-DTPA-BMA: not significantly counteracted; also recorded: did not counteract the Gd-DTPA-BMA induced enhancement of the infarcted tissue
[4]; infarctions
  susceptibility induced (Dy induced) signal intensity reduction in infarctions: lack of detectable susceptibility induced (i.e. Dy induced) signal intensity reduction effects in the infarctions
[6]; T1- and T2-weighted sequences
  infarct detection / conspicuity: improves the infarct detection due to susceptibility-induced loss of signal intensity in nonischemic myocardium
[6]; infarcted myocardium
  signal effect of accumulation in infarcted myocardium: does not seem to result in signal loss but maintains a persistent intensity relative to the depleted signal in normal myocardium
Myocardial infarction
  distribution in infarcted heart: allowed essentially only to distribute to the normal tissue resulting in the generation of enhanced contrast between normal and infarcted tissue
[7]
  concentration course in dialysate: increased gradually
  duration of plateau in dialysate: 60 min
  concentration in dialysate after early peak: diminished with time
